Measurements reported in patent publication US20140348819A1, “Methods of Treating Cancer” (Dana-Farber Cancer Institute, Inc., priority 2011, published 2014).

How the values were obtained:
[1] = system: six V600E BRAF melanoma cell lines; experiment: Screening of recombinant RTK ligands for ability to confer resistance to BRAFi (PLX4720) or MEKi (PD184352) (Table 4); type: cell-based, human; set-up: ability of recombinant RTK ligand to confer resistance / ability of recombinant RTK ligand to confer resistance (screening value): scale not given here
Procedure, shortened: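 Resistance to BRAFi (PLX4720) or MEKi (PD184352) was tested in six V600E BRAF melanoma lines given one of 22 recombinant RTK ligands. For a subset of RTKs, activation was checked by high-throughput tyrosine kinase phosphorylation profiling and western blot.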

pERK/pAKT = experiment: High-throughput western analysis of pERK/pAKT re-activation by RTK ligands under BRAFi/MEKi; type: cell-based, human; details: under BRAFi (PLX4720); after 1 hour of cytokine treatment; six V600E BRAF melanoma cell lines
Protocol: FIG. 23B is a western blot showing the activation of AKT (phosphorylated AKT, S473) after 1 hour and 24 hours after treatment with HGF, IGF-1 (IGF), and Insulin (INS) in the presence of BRAFi (PLX4720, 2 μM). FIG. 23C is a western blot showing the effect of HGF (25 ng/mL) on MAPK and PI3K/AKT pathway activation (pRAF1, pMEK, pERK, pAKT and pMET) in melanoma cell lines after 24 hours of treatment with 2 μM BRAFi (PLX4720) or 2 μM MEKi (PD184352).
To understand why, of all the RTKs tested, only HGF could induce such a unique primary resistance phenotype, a high-throughput western analysis was used to test the ability of all 22 RTK ligands to re-activate pERK/pAKT under BRAFi (PLX4720) treatment in six V600E BRAF melanoma cell lines. […] However, whereas the activation of both ERK and AKT by HGF under PLX4720 treatment was long lasting, the activation of either ERK or AKT by the above cytokines was only transient and thus could not confer resistance to the melanoma cell lines.

insulin: RTK ligand (INSR), cytokine tested
ability of recombinant RTK ligand to confer resistance ([1]; A2058, PD184352 - 1 uM, ligand 156.25 ng/ml): 0.98 | ability of recombinant RTK ligand to confer resistance ([1]; A2058, PD184352 - 1 uM, ligand 625 ng/ml): 0.99 | ability of recombinant RTK ligand to confer resistance ([1]; A2058, PD184352 - 1 uM, ligand 2500 ng/ml): 1.14 | ability of recombinant RTK ligand to confer resistance ([1]; A2058, PD184352 - 1 uM, ligand 10000 ng/ml): 1.03 | ability of recombinant RTK ligand to confer resistance ([1]; A2058, PD184352 - 1 uM, ligand 40000 ng/ml): 1.06 | ability of recombinant RTK ligand to confer resistance ([1]; A2058, PLX4720 - 2 uM, ligand 156.25 ng/ml): 0.98 | ability of recombinant RTK ligand to confer resistance ([1]; A2058, PLX4720 - 2 uM, ligand 625 ng/ml): 0.96 | ability of recombinant RTK ligand to confer resistance ([1]; A2058, PLX4720 - 2 uM, ligand 2500 ng/ml): 1.12 | ability of recombinant RTK ligand to confer resistance ([1]; A2058, PLX4720 - 2 uM, ligand 10000 ng/ml): 1.02 | ability of recombinant RTK ligand to confer resistance ([1]; A2058, PLX4720 - 2 uM, ligand 40000 ng/ml): 1.11 | ability of recombinant RTK ligand to confer resistance ([1]; C32, PD184352 - 1 uM, ligand 156.25 ng/ml): 1.09 | ability of recombinant RTK ligand to confer resistance ([1]; C32, PD184352 - 1 uM, ligand 625 ng/ml): 1.08 | ability of recombinant RTK ligand to confer resistance ([1]; C32, PD184352 - 1 uM, ligand 2500 ng/ml): 1.20 | ability of recombinant RTK ligand to confer resistance ([1]; C32, PD184352 - 1 uM, ligand 10000 ng/ml): 1.08 | ability of recombinant RTK ligand to confer resistance ([1]; C32, PD184352 - 1 uM, ligand 40000 ng/ml): 1.04 | ability of recombinant RTK ligand to confer resistance ([1]; C32, PLX4720 - 2 uM, ligand 156.25 ng/ml): 1.14 | ability of recombinant RTK ligand to confer resistance ([1]; C32, PLX4720 - 2 uM, ligand 625 ng/ml): 1.05 | ability of recombinant RTK ligand to confer resistance ([1]; C32, PLX4720 - 2 uM, ligand 2500 ng/ml): 1.20 | ability of recombinant RTK ligand to confer resistance ([1]; C32, PLX4720 - 2 uM, ligand 10000 ng/ml): 1.02 | ability of recombinant RTK ligand to confer resistance ([1]; C32, PLX4720 - 2 uM, ligand 40000 ng/ml): 1.04 | ability of recombinant RTK ligand to confer resistance ([1]; Colo 829, PD184352 - 1 uM, ligand 156.25 ng/ml): 0.91 | ability of recombinant RTK ligand to confer resistance ([1]; Colo 829, PD184352 - 1 uM, ligand 625 ng/ml): 0.98 | ability of recombinant RTK ligand to confer resistance ([1]; Colo 829, PD184352 - 1 uM, ligand 2500 ng/ml): 0.98 | ability of recombinant RTK ligand to confer resistance ([1]; Colo 829, PD184352 - 1 uM, ligand 10000 ng/ml): 1.02 | ability of recombinant RTK ligand to confer resistance ([1]; Colo 829, PD184352 - 1 uM, ligand 40000 ng/ml): 1.02 | ability of recombinant RTK ligand to confer resistance ([1]; Colo 829, PLX4720 - 2 uM, ligand 156.25 ng/ml): 0.91 | ability of recombinant RTK ligand to confer resistance ([1]; Colo 829, PLX4720 - 2 uM, ligand 625 ng/ml): 0.93 | ability of recombinant RTK ligand to confer resistance ([1]; Colo 829, PLX4720 - 2 uM, ligand 2500 ng/ml): 0.97 | ability of recombinant RTK ligand to confer resistance ([1]; Colo 829, PLX4720 - 2 uM, ligand 10000 ng/ml): 1.01 | ability of recombinant RTK ligand to confer resistance ([1]; Colo 829, PLX4720 - 2 uM, ligand 40000 ng/ml): 1.00 | ability of recombinant RTK ligand to confer resistance ([1]; G-361, PD184352 - 1 uM, ligand 156.25 ng/ml): 0.98 | ability of recombinant RTK ligand to confer resistance ([1]; G-361, PD184352 - 1 uM, ligand 625 ng/ml): 0.91 | ability of recombinant RTK ligand to confer resistance ([1]; G-361, PD184352 - 1 uM, ligand 2500 ng/ml): 1.01 | ability of recombinant RTK ligand to confer resistance ([1]; G-361, PD184352 - 1 uM, ligand 10000 ng/ml): 0.98 | ability of recombinant RTK ligand to confer resistance ([1]; G-361, PD184352 - 1 uM, ligand 40000 ng/ml): 0.97 | ability of recombinant RTK ligand to confer resistance ([1]; G-361, PLX4720 - 2 uM, ligand 156.25 ng/ml): 0.92 | ability of recombinant RTK ligand to confer resistance ([1]; G-361, PLX4720 - 2 uM, ligand 625 ng/ml): 0.88 | ability of recombinant RTK ligand to confer resistance ([1]; G-361, PLX4720 - 2 uM, ligand 2500 ng/ml): 0.98 | ability of recombinant RTK ligand to confer resistance ([1]; G-361, PLX4720 - 2 uM, ligand 10000 ng/ml): 0.96 | ability of recombinant RTK ligand to confer resistance ([1]; G-361, PLX4720 - 2 uM, ligand 40000 ng/ml): 0.99 | ability of recombinant RTK ligand to confer resistance ([1]; SK-MEL-5, PD184352 - 1 uM, ligand 156.25 ng/ml): 1.20 | ability of recombinant RTK ligand to confer resistance ([1]; SK-MEL-5, PD184352 - 1 uM, ligand 625 ng/ml): 1.24 | ability of recombinant RTK ligand to confer resistance ([1]; SK-MEL-5, PD184352 - 1 uM, ligand 2500 ng/ml): 1.30 | ability of recombinant RTK ligand to confer resistance ([1]; SK-MEL-5, PD184352 - 1 uM, ligand 10000 ng/ml): 1.28 | ability of recombinant RTK ligand to confer resistance ([1]; SK-MEL-5, PD184352 - 1 uM, ligand 40000 ng/ml): 1.66 | ability of recombinant RTK ligand to confer resistance ([1]; SK-MEL-5, PLX4720 - 2 uM, ligand 156.25 ng/ml): 1.10 | ability of recombinant RTK ligand to confer resistance ([1]; SK-MEL-5, PLX4720 - 2 uM, ligand 625 ng/ml): 1.18 | ability of recombinant RTK ligand to confer resistance ([1]; SK-MEL-5, PLX4720 - 2 uM, ligand 2500 ng/ml): 1.27 | ability of recombinant RTK ligand to confer resistance ([1]; SK-MEL-5, PLX4720 - 2 uM, ligand 10000 ng/ml): 1.26 | ability of recombinant RTK ligand to confer resistance ([1]; SK-MEL-5, PLX4720 - 2 uM, ligand 40000 ng/ml): 1.43 | ability of recombinant RTK ligand to confer resistance ([1]; SK-MEL-28, PD184352 - 1 uM, ligand 156.25 ng/ml): 1.01 | ability of recombinant RTK ligand to confer resistance ([1]; SK-MEL-28, PD184352 - 1 uM, ligand 625 ng/ml): 0.97 | ability of recombinant RTK ligand to confer resistance ([1]; SK-MEL-28, PD184352 - 1 uM, ligand 2500 ng/ml): 1.06 | ability of recombinant RTK ligand to confer resistance ([1]; SK-MEL-28, PD184352 - 1 uM, ligand 10000 ng/ml): 1.13 | ability of recombinant RTK ligand to confer resistance ([1]; SK-MEL-28, PD184352 - 1 uM, ligand 40000 ng/ml): 1.11 | ability of recombinant RTK ligand to confer resistance ([1]; SK-MEL-28, PLX4720 - 2 uM, ligand 156.25 ng/ml): 1.02 | ability of recombinant RTK ligand to confer resistance ([1]; SK-MEL-28, PLX4720 - 2 uM, ligand 625 ng/ml): 0.95 | ability of recombinant RTK ligand to confer resistance ([1]; SK-MEL-28, PLX4720 - 2 uM, ligand 2500 ng/ml): 0.99 | ability of recombinant RTK ligand to confer resistance ([1]; SK-MEL-28, PLX4720 - 2 uM, ligand 10000 ng/ml): 1.05 | ability of recombinant RTK ligand to confer resistance ([1]; SK-MEL-28, PLX4720 - 2 uM, ligand 40000 ng/ml): 1.05 | re-activation of pERK/pAKT (pERK/pAKT): only reactivate AKT
